From patent publication US20260226071A1, “2, 4-DIANILINOPYRIMIDINE-BASED AURORA-A KINASE SELECTIVE DEGRADATION INDUCING COMPOUNDS” (UPPTHERA, INC., priority 2023, published 2026)

Assays:
NCI-H446 cell line = assay: Cell viability assay for NCI-H446 cell line; assay type: cell-based; settings: Homo sapiens, NCI-H446, 120 h; H446 cells, 5 days culture, EZ-Cytox; read-out: IC50 value (Level)
Outline: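 H446 cells seeded 24 h before treatment with compound in 3-fold dilutions, 1000 to 0.15 nM, then cultured 5 days at 37 °C, 5% CO2 in RPMI 1640/10% FBS. Viability read with EZ-Cytox (4 h) as absorbance at 450 nm.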

Aurora kinase A (AURKA) = biological target: T1, Aurora kinase A (AURKA) (Homo sapiens, UniProt O14965); assay: Luciferase assay for AURKA in HeLa LgBit (AURKA-HiBit KI) cell line; assay type: cell-based; settings: HeLa LgBit (AURKA-HiBit KI) cells, measured after 12 hours
T1 construct: endogenous in cells; host or cells: HeLa LgBit (AURKA-HiBit KI), CRISPR/Cas9 knock-in at the endogenous AURKA locus
T1 sequence (O14965 1-403): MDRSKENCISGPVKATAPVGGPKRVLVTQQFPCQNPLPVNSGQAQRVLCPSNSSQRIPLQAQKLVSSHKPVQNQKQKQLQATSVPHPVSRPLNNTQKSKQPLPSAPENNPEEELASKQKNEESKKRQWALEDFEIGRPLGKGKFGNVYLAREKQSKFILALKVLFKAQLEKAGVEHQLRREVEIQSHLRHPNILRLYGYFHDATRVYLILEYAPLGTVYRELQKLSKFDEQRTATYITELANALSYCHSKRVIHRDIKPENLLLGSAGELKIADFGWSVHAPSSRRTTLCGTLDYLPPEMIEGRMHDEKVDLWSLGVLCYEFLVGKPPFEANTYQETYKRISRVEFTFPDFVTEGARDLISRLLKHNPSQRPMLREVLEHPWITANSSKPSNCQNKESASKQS
Outline: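 HeLa cells stably expressing LgBit, with HiBit knocked in at the C-terminus of endogenous AURKA; 3×10^4 cells seeded, 18 h, then Endurazine substrate 2 h. Compounds tested at 10 nM or 100 nM; luminescence read at 470-480 nm after 12 h as real-time read-out.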

SMILES | IC50 (NCI-H446 cell line) | luminescence value (Level) (Aurora kinase A (AURKA); 10 nM compound) | luminescence value (Level) (Aurora kinase A (AURKA); 100 nM compound)
O=C1CC[C@H](Nc2ccc(N3CCN(CCC4CCN(NC(=O)c5ccc(Nc6ncc(F)c(Nc7ccc(C(=O)Nc8ccccc8Cl)cc7)n6)cc5)CC4)CC3)c(F)c2)C(=O)N1 [Compound 94, (S)—N-(2-chlorophenyl)-4-((2-((4-((4-(2-(4-(4-((2,6-dioxopiperidin-3-yl)amino)-2-fluorophenyl)piperazin-1-yl)ethyl)piperidin-1-yl)carbamoyl)phenyl)amino)-5-fluoropyrimidin-4-yl)amino)benzamide] | < 50 nM | A (A is <0.3) | A (A is <0.2)
O=C1CCC(Nc2ccc(N3CCN(CCC4CCN(NC(=O)c5ccc(Nc6ncc(F)c(Nc7ccc(C(=O)Nc8ccccc8Cl)cc7)n6)cc5)CC4)CC3)cc2)C(=O)N1 (stereo not drawn) [Compound 43, N-(2-chlorophenyl)-4-((2-((4-((4-(2-(4-(4-((2,6-dioxopiperidin-3-yl)amino)phenyl)piperazin-1-yl)ethyl)piperidin-1-yl)carbamoyl)phenyl)amino)-5-fluoropyrimidin-4-yl)amino)benzamide] | < 50 nM | A (A is <0.3) | A (A is <0.2)
CCC(CN1CCN(c2ccc(C3CCC(=O)NC3=O)cc2)CC1)C1CCN(NC(=O)c2ccc(Nc3ncc(F)c(Nc4ccc(C(=O)Nc5ccccc5Cl)cc4)n3)cc2)CC1 (stereo not drawn) [Compound 72, N-(2-chlorophenyl)-4-((2-((4-((4-(1-(4-(4-(2,6-dioxopiperidin-3-yl)phenyl)piperazin-1-yl)butan-2-yl)piperidin-1-yl)carbamoyl)phenyl)amino)-5-fluoropyrimidin-4-yl)amino)benzamide] | < 50 nM | B (B is 0.3 to 0.5) | A (A is <0.2)
CN(CCN1CCN(c2ccc(C3CCC(=O)NC3=O)cc2)CC1)[C@H]1CC[C@H](NC(=O)c2ccc(Nc3ncc(F)c(Nc4ccc(C(=O)Nc5ccccc5Cl)cc4)n3)cc2)CC1 (stereo partly drawn) [Compound 75, N-(2-chlorophenyl)-4-((2-((4-(((1r,4r)-4-((2-(4-(4-(2,6-dioxopiperidin-3-yl)phenyl)piperazin-1-yl)ethyl)(methyl)amino)cyclohexyl)carbamoyl)phenyl)amino)-5-fluoropyrimidin-4-yl)amino)benzamide] | 50 to 100 nM | A (A is <0.3) | A (A is <0.2)
O=C1CC[C@@H](Nc2ccc(N3CCN(CCC4CCN(NC(=O)c5ccc(Nc6ncc(F)c(Nc7ccc(C(=O)Nc8ccccc8Cl)cc7)n6)cc5)CC4)CC3)cc2F)C(=O)N1 [Compound 111, (R)—N-(2-chlorophenyl)-4-((2-((4-((4-(2-(4-(4-((2,6-dioxopiperidin-3-yl)amino)-3-fluorophenyl)piperazin-1-yl)ethyl)piperidin-1-yl)carbamoyl)phenyl)amino)-5-fluoropyrimidin-4-yl)amino)benzamide] | < 50 nM | A (A is <0.3) | A (A is <0.2)
O=C1CCC(c2ccc(N3CCN(CCC4CCN(NC(=O)c5ccc(Nc6ncc(F)c(Nc7ccc(C(=O)Nc8ccccc8)cc7)n6)cc5)CC4)CC3)cc2)C(=O)N1 (stereo not drawn) [Compound 103, 4-[[2-[4-[[4-[2-[4-[4-(2,6-dioxo-3-piperidyl)phenyl]piperazin-1-yl]ethyl]-1-piperidyl]carbamoyl]anilino]-5-fluoro-pyrimidin-4-yl]amino]-N-phenyl-benzamide] | 50 to 100 nM | B (B is 0.3 to 0.5) | A (A is <0.2)
O=C1CCC(Nc2cc(F)c(N3CCN(CCC4CCN(NC(=O)c5ccc(Nc6ncc(F)c(Nc7ccc(NC(=O)c8ccccc8F)cc7)n6)cc5F)CC4)CC3)cc2F)C(=O)N1 (stereo not drawn) [Compound 109, N-(4-(2-(4-(4-((2,6-dioxopiperidin-3-yl)amino)-2,5-difluorophenyl)piperazin-1-yl)ethyl)piperidin-1-yl)-2-fluoro-4-((5-fluoro-4-((4-(2-fluorobenzamido)phenyl)amino)pyrimidin-2-yl)amino)benzamide] | 50 to 100 nM | B (B is 0.3 to 0.5) | A (A is <0.2)
Cc1cc(N2CCN(CCC3CCN(NC(=O)c4ccc(Nc5ncc(F)c(Nc6ccc(C(=O)Nc7ccccc7Cl)cc6)n5)cc4)CC3)CC2)ccc1NC1CCC(=O)NC1=O (stereo not drawn) [Compound 85, N-(2-chlorophenyl)-4-((2-((4-((4-(2-(4-(4-((2,6-dioxopiperidin-3-yl)amino)-3-methylphenyl)piperazin-1-yl)ethyl)piperidin-1-yl)carbamoyl)phenyl)amino)-5-fluoropyrimidin-4-yl)amino)benzamide] | 150 to 200 nM | B (B is 0.3 to 0.5) | A (A is <0.2)
O=C1CCC(c2ccc(N3CCC(N4CCC5(CC4)CC(NC(=O)c4ccc(Nc6ncc(F)c(Nc7ccc(C(=O)Nc8ccccc8Cl)cc7)n6)cc4)C5)CC3)c(F)c2)C(=O)N1 (stereo not drawn) [Compound 21, N-(2-chlorophenyl)-4-((2-((4-((7-(1-(4-(2,6-dioxopiperidin-3-yl)-2-fluorophenyl)piperidin-4-yl)-7-azaspiro[3.5]nonan-2-yl)carbamoyl)phenyl)amino)-5-fluoropyrimidin-4-yl)amino)benzamide] | < 50 nM | B (B is 0.3 to 0.5) | A (A is <0.2)
O=C1CCC(c2ccc(N3CCN(C(=O)CN4CCC(NC(=O)c5ccc(Nc6ncc(F)c(Nc7ccc(C(=O)Nc8ccccc8Cl)cc7)n6)cc5)CC4)CC3)cc2)C(=O)N1 (stereo not drawn) [Compound 51, N-(2-chlorophenyl)-4-((2-((4-((1-(2-(4-(4-(2,6-dioxopiperidin-3-yl)phenyl)piperazin-1-yl)-2-oxoethyl)piperidin-4-yl)carbamoyl)phenyl)amino)-5-fluoropyrimidin-4-yl)amino)benzamide] | < 50 nM | A (A is <0.3) | A (A is <0.2)
O=C1CCC(c2ccc(N3CCN(CCN4CC(NC(=O)c5ccc(Nc6ncc(F)c(Nc7ccc(C(=O)Nc8ccccc8Cl)cc7)n6)cc5)C4)CC3)cc2)C(=O)N1 (stereo not drawn) [Compound 65, N-(2-chlorophenyl)-4-((2-((4-((1-(2-(4-(4-(2,6-dioxopiperidin-3-yl)phenyl)piperazin-1-yl)ethyl)azetidin-3-yl)carbamoyl)phenyl)amino)-5-fluoropyrimidin-4-yl)amino) benzamide] | 50 to 100 nM | B (B is 0.3 to 0.5) | A (A is <0.2)
C[C@H]1CN(c2ccc(C3CCC(=O)NC3=O)cc2)CCN1CCC1CCN(NC(=O)c2ccc(Nc3ncc(F)c(Nc4ccc(C(=O)Nc5ccccc5Cl)cc4)n3)cc2)CC1 (stereo partly drawn) [Compound 113, N-(2-chlorophenyl)-4-((2-((4-((4-(2-((2S)-4-(4-(2,6-dioxopiperidin-3-yl)phenyl)-2-methylpiperazin-1-yl)ethyl)piperidin-1-yl)carbamoyl)phenyl)amino)-5-fluoropyrimidin-4-yl)amino)benzamide] | < 50 nM | A (A is <0.3) | A (A is <0.2)
CN(CC1CCN(c2ccc(NC3CCC(=O)NC3=O)cc2)CC1)C[C@H]1CC[C@H](NC(=O)c2ccc(Nc3ncc(F)c(Nc4ccc(C(=O)Nc5ccccc5Cl)cc4)n3)cc2)CC1 (stereo partly drawn) [Compound 38, N-(2-chlorophenyl)-4-[[2-[4-[[4-[[[1-[4-[(2,6-dioxo-3-piperidyl)amino]phenyl]-4-piperidyl]methyl-methyl-amino]methyl]cyclohexyl]carbamoyl]anilino]-5-fluoro-pyrimidin-4-yl]amino]benzamide] | > 200 nM | B (B is 0.3 to 0.5) | B (B is 0.2 to 0.4)
CN(CC1CCN(c2ccc(C3CCC(=O)NC3=O)cc2)CC1)C1CCC(NC(=O)c2ccc(Nc3ncc(F)c(Nc4ccc(C(=O)Nc5ccccc5Cl)cc4)n3)cc2)CC1 (stereo not drawn) [Compound 4, N-(2-chlorophenyl)-4-((2-((4-((4-(((1-(4-(2,6-dioxopiperidin-3-yl)phenyl)piperidin-4-yl)methyl)(methyl)amino)cyclohexyl)carbamoyl)phenyl)amino)-5-fluoropyrimidin-4-yl)amino)benzamide] | 100 to 150 nM | C (C is 0.5 to 0.7) | A (A is <0.2)
